{
  "source": "PubChem BioAssay (NCI)",
  "note": "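Briefly, cells in 96-well plates were exposed to five compound concentrations for 48 h, and endpoints were estimated by linear interpolation. GI50 is the concentration that inhibits growth by half. TGI marks complete inhibition of growth.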",
  "data": [
    {"system": "MDA-MB-468 breast", "test": "growth of human tumour cells (NCI), 48 h", "units": {"GI50": "nM", "TGI": "µM"}, "values": [
      {"compound": "Cc1[nH]nc2ccc3nc(-c4ccc5[nH]ncc5c4)c4c(c3c12)CCCC4", "GI50": 1020, "TGI": 4.38},
      {"compound": "Cc1cc(C)c2nc3nc(C)cc(C)c3c(N)c2c1", "GI50": 3610, "TGI": 14.9},
      {"compound": "C=CC[C@@H]1/C=C(\\C)C[C@H](C)C[C@H](OC)[C@H]2O[C@@](O)(C(=O)C(=O)N3CCCC[C@H]3C(=O)O[C@H](/C(C)=C/C3CC[C@@H](O)[C@H](OC)C3)[C@H](C)[C@@H](O)CC1=O)[C@H](C)C[C@@H]2OC", "note": "(some centres undefined)", "GI50": 12200, "TGI": 27.3},
      {"compound": "O=C(Nc1ccc(OCc2nnc(-c3ccccc3)o2)c(F)c1)Nc1ccc(Cl)c(C(F)(F)F)c1", "GI50": 1900, "TGI": 6.93},
      {"compound": "COC1=C2C[C@@H](C)C[C@@H](OC)[C@@H](O)[C@H](C)/C=C(\\C)[C@@H](OC(N)=O)[C@H](OC)/C=C\\C=C(/C)C(=O)NC(=CC1=O)C2=O", "GI50": 15.3, "TGI": 0.577},
      {"compound": "COc1nc(N)nc2c1ncn2[C@@H]1O[C@H](CO)[C@@H](O)[C@@H]1O", "GI50": "> 100000", "TGI": "> 100"},
      {"compound": "C/C(=C\\CCc1ccsc1)CC/C=C(\\C)CCCN1CCC(CO)CC1", "GI50": 1480, "TGI": 3.29},
      {"compound": "CC1OC(n2c3ccccc3c3c4c(c5c6ccccc6[nH]c5c32)C(=O)N(CCN2CCOCC2)C4=O)CC(O)C1O", "note": "(centres undefined)", "GI50": 1570, "TGI": 4.57},
      {"compound": "O=C1CCC(N2Cc3c(C#CCCCNC(=O)c4cc5c(o4)C(=O)c4ccccc4C5=O)cccc3C2=O)C(=O)N1", "note": "(centres undefined)", "GI50": 2130, "TGI": 6.25},
      {"compound": "N#C/C(=C1C=C/C(=N\\O)C(Cl)=C\\1)c1ccccc1", "GI50": 920, "TGI": 17.5},
      {"compound": "CCN(CC)CCCCNc1ncc2cc(-c3cc(OC)cc(OC)c3)c(NC(=O)NC(C)(C)C)nc2n1", "GI50": 8810, "TGI": 21.7},
      {"compound": "O=C1CC[C@H](c2ccc(O)c3c2C(=O)[C@@H]2O[C@@H]2C3=O)c2cccc(O)c21", "GI50": 1610, "TGI": 4.27},
      {"compound": "O=C(Cc1ccccc1)NC(c1ccc(Cl)cc1)c1c(O)ccc2ccccc12", "note": "(centres undefined)", "GI50": 1990, "TGI": 5.53},
      {"compound": "Cc1cc2cc3cc(C)c(N)cc3[n+](C)c2cc1N", "GI50": 243, "TGI": 1.3},
      {"compound": "O=S(=O)(CCNCc1ccc(-c2ccc3ncnc(Nc4ccc(OCc5cccc(F)c5)c(Cl)c4)c3c2)o1)c1ccccc1", "GI50": 217, "TGI": 7.79},
      {"compound": "C#C[C@]1(O)CC[C@H]2[C@@H]3CC=C4c5sc(Nc6cccc(F)c6)nc5CC[C@]4(C)[C@H]3CC[C@@]21C", "GI50": 1240, "TGI": 2.91},
      {"compound": "COc1ccc(OC)c(/C=C2\\COc3ccc(O)c(O)c3C2=O)c1", "GI50": 1660, "TGI": 5.25},
      {"compound": "COc1ccc2cc(Cn3cc[n+](Cc4ccc5ccccc5c4)c3)ccc2c1", "GI50": 487, "TGI": 2.57},
      {"compound": "COc1ccc(-c2nc(N3CCOCC3)c3sc(CN(C)c4ncc(C(=O)NO)cn4)cc3n2)cn1", "GI50": "< 10.4", "TGI": 0.0968},
      {"compound": "CC(C)n1c(=O)n(C)c2cnc3cc(F)c(-c4ccc(OCCCN5CCCCC5)nc4)cc3c21", "GI50": 4980, "TGI": 26},
      {"compound": "C=C(C)[C@@H]1CC[C@]2(C(=O)O)CC[C@]3(C)[C@H](CC[C@@H]4[C@@]5(C)C/C(=C/c6ccc(OC)cc6)C(=O)C(C)(C)[C@@H]5CC[C@]43C)[C@@H]12", "GI50": 1810, "TGI": 7},
      {"compound": "CS(=O)(=O)c1ccc(Oc2cc(F)cc(C#N)c2)c2c1[C@H](O)C(F)(F)C2", "GI50": "> 100000", "TGI": "> 100"},
      {"compound": "O=C(NCCNc1nccc(-c2c(-c3cccc(O)c3)nc3sccn23)n1)Nc1cccc(C(F)(F)F)c1", "GI50": 1670, "TGI": 3.33},
      {"compound": "N=c1n(Cc2ccccc2)c(N)cc(=O)n1Cc1ccccc1", "GI50": 4820, "TGI": 21.2},
      {"compound": "CCOC(=O)c1c(Cl)c2c(n1Cc1cccc(OC)c1)-c1oncc1CC2", "GI50": 652, "TGI": 5.87},
      {"compound": "CCN(CC)CCCC(Cc1ccccc1)Nc1c2ccc(Cl)cc2nc2ccc(OC)cc12", "note": "(centres undefined)", "GI50": 1700, "TGI": 3.67},
      {"compound": "H-HIIKKIRTWYRKAWHVLGKV-NH2", "GI50": 6380, "TGI": 39},
      {"compound": "Cn1ccnc1C(=O)/C=C/c1ccc(CC(=O)Nc2ccc(F)cc2)cc1", "GI50": 1720, "TGI": 5.8},
      {"compound": "S=C(c1ccc2c(c1)OCO2)N1CCN(c2cccc(Cl)c2)CC1", "GI50": 340, "TGI": "> 36.8"},
      {"compound": "CC1(C)N=C(N)N=C(N)N1c1cccc(CCCCOc2ccccc2)c1", "GI50": 77.5, "TGI": 4.08},
      {"compound": "CCn1c(-c2nonc2N)nc2cncc(C(=O)NCCNC)c21", "GI50": 1900, "TGI": 14.6},
      {"compound": "COc1cc(C2CC(c3ccccc3)=NN2C(C)=O)cc(OC)c1OC", "note": "(centres undefined)", "GI50": 3340, "TGI": 37.1},
      {"compound": "Cc1nn(-c2ccccc2)c2nc3c(nc12)C1=NCCN1C(c1ccc(Cl)cc1)N3", "note": "(centres undefined)", "GI50": 1650, "TGI": 3.23},
      {"compound": "COc1cccc(Cn2c(-c3nonc3NC(C)=O)nc3ccccc32)c1", "GI50": 1450, "TGI": 6.36},
      {"compound": "Clc1ccc(C2=NN[C@H](c3cn(-c4ccccc4)nc3-c3ccccc3)C2)cc1", "GI50": 4220, "TGI": 18.2},
      {"compound": "O=C1/C(=C/c2ccccc2F)CN(C(=O)C(Cl)Cl)C/C1=C\\c1ccccc1F", "GI50": 277, "TGI": 1.11},
      {"compound": "O=C(NCCNc1nccc(-c2c(-c3ccc(F)cc3)nc3sccn23)n1)c1ccccc1", "GI50": 4480, "TGI": 44.5},
      {"compound": "O=C(CN1C(=O)S/C(=C\\C(Cl)=C\\c2ccccc2)C1=O)NCCc1ccc(O)cc1", "GI50": 1270, "TGI": 3.54},
      {"compound": "COc1ccc(-c2nn(-c3cccc(NC(=O)c4cccc(C(F)(F)F)c4)c3)cc2-c2ccncc2)cc1Cl", "GI50": 1680, "TGI": 9.61},
      {"compound": "C/C(=C(\\c1ccc(O)cc1)c1ccc(OCCN2CCCCCC2)cc1)c1ccc(Cl)cc1", "GI50": 1130, "TGI": 4.51},
      {"compound": "COc1cc(NC(=O)CSc2nc3ccccc3c(=O)n2CCc2ccccc2)cc(OC)c1OC", "GI50": 2200, "TGI": 7.13},
      {"compound": "COc1ccc(CCN2CCC(Nc3nc4ccccc4n3Cc3ccc(F)cc3)CC2)cc1", "GI50": 1150, "TGI": 2.44}
    ]}
  ]
}
